According to US20080103191A1, “ENTACAPONE-DERIVATIVES” (priority 2006, published 2008):
Values after ≈ are worked out from the molar mass of the structure shown. Read-outs that look alike come from different tables or passages of the source.

Assays:
[1] = Chemical hydrolysis stability at pH 1 and pH 7.4 (HPLC); type: physicochemical; conditions: 37° C., over 12 h
Experimental: The stability of compounds of the present invention is tested at pH 1 and at pH 7.4. The testing is carried out by the following HPLC method:
Chemical hydrolysis rates t1/2 [h] of selected compounds of formula I are determined in 0.1 N HCl (pH 1) and PBS buffer (pH 7.4) solution. Solutions are prepared by dissolving an appropriate amount of compound in 0.1 N HCl and PBS buffer solution. Samples were withdrawn at designated time intervals and analysed for remaining prodrug by HPLC at 37° C. over 12 h.
Reversed phase gradient HPLC method, column YMC Pro C8, 50 mm×4.0 mm, 3 μm, Eluent A: Water:trifluoroacetic acid (100:0.5 (v/v)), Eluent B: Acetonitrile:trifluoroacetic:acid (100:0.5 (v/v)). Column temperature 30° C., Flow rate 3.0 mL/min, Detection wavelength: 220 nm
For evaluation, the peak area of the respective compound from the first injection is defined as 100% relative concentration. The peak areas of all other subsequent injections are calculated in percentage relating to this standard. (relative concentration in %). The relative concentrations are plotted in a logarithmic scale (ln) against the injection times. Based on the assumption of a first order kinetic, the rate constant and half life times (t1/2 [h]) can be calculated.

[2] = Solubility in 0.1 N HCl, PBS buffer, FaSSIF and FeSSIF; type: physicochemical; conditions: thermodynamic from solid
Experimental: For testing solubility, saturated solutions of selected compounds of formula I are prepared in four different systems and compared to the solubility of entacapone. The solubility is tested in 0.1 N HCl (pH 1), PBS buffer (pH 7.4) and in two simulated gastric fluids, FaSSIF at pH 6.5 (for fasting state) and FeSSIF at pH 5.0 (for fed state) at ambient temperature. The content of the FaSSIF simulated gastric fluid is as follows:
The solubility testing is carried out by the following method: An excess amount of each compound is added to a 0.1 N HCl, PBS buffer, FeSSIF and FaSSIF. The suspensions are shaken for 10 min. After centrifugation the concentration is determined by HPLC. Reversed phase gradient HPLC method, column YMC Pro C8, 50 mm×4.0 mm, 3 μm, Eluent A: Water:trifluoroacetic acid (100:0.5 (v/v)), Eluent B: Acetonitrile:trifluoroacetic:acid (100:0.5 (v/v)). Column temperature 30° C., Flow rate 3.0 mL/min, Detection wavelength: 220 nm

[3] = Log D (pH 7.4) by isocratic HPLC; type: physicochemical; conditions: YMC Pro C18 column, phosphate buffer pH 7.4/acetonitrile 45/55
Experimental: LogD is an indicator for absorption and lipophilicity for ionized compounds under defined pH conditions and is measured by applying an isocratic HPLC Method at pH 7.4.
The log D has been tested at pH 7.4. The testing has been carried out by the following method: Isocratic HPLC method: Column YMC Pro C18, 150 mm×4.0 mm, 3 μm, Eluent Phosphate buffer pH 7.4/acetonitrile (45/55, (v/v)), Runtime 15-60 min, Flow rate 1.2 ml/min, Detection wavelength: 220 nm

[4] = Permeability in Caco-2 cells, apical to basolateral; type: in vitro ADME; design: dose or concentration left out as unconfirmed; conditions: human; 21d Caco-2 monolayer, apical pH 6.5 to basolateral pH 7.4, 60 minutes
Text: The human adenocarcinoma cell line Caco-2 is used as an in vitro system to predict oral absorption. These cells serve as a model of small bowel tissue and permeation through these cells is a predictor for gastro-intestinal absorption. Further to being a model for oral absorption, permeability in Caco-2 cells may be predictive for the blood brain barrier permeability (P. Garberg et al.; Toxicology in vitro 19 (2005); 299-334). […] The permeability in Caco-2 cells has been tested by the following method:
The permeability of selected compounds of formula I across Caco-2 (21d Caco-2-culture) monolayer in the apical to basolateral direction is investigated. Control substances were ^3H-propranolol and ^3H-mannitol.
The nominal concentration of the test items is […]. The pH value is set to 6.5 for the apical transport medium and to 7.4 for the basolateral medium. Samples are obtained following 60 minutes (120 minutes for control samples) incubation from the basolateral receiver chamber. At sampling time approximately 600 μL of each well are transferred into an eppendorf vial and stored between −12° and −30° C. until HPLC or LC-MS/MS analysis. The control substances are quantified by liquid scintillation.

Plasma stability ex vivo = type: in vitro ADME; conditions: human plasma, 37° C., read-out: t1/2 plasma
Experimental: Plasma stability is determined in human and rat plasma ex vivo. For the determination of the plasma stability of the compounds of formula I, the test compounds were incubated with human plasma (c=5 μg/mL) at 37° C. for certain time intervals up to 60, resp. 120 min (depending on the compound). Afterwards the incubations were stopped by equivalent addition of acetonitrile for protein precipitation, and the samples were mixed and centrifuged. The supernatants were adequately diluted and analyzed by HPLC with UV detection at 305 nm.
The degradation of the compounds of formula I as well as the formation of the active drug entacapone were monitored, and the half-life times of the compounds of formula I were calculated from the obtained peak areas.

[5] = Solubility in Labrasol and TPGS/PG formulations; type: physicochemical
Experimental: Selected lipophilic carbonate compounds of formula I with promising Caco-2 permeabilities are formulated with different lipids/lipophilic excipients and/or micelles forming compounds in order to increase their solubilities. The following formulations are prepared by mixing the ingredients mentioned below: • i) Formulations comprising solubilizers in the form of lipides/lipophilic excipients: • ia) Formulation comprising Labrasol® and the selected compounds of Formula I • Labrasol®: • Caprylocaproyl macrogol-8-glyceride (CAS No. 85536-07-8 and 84963-88-2). This is a mixture of mono-, di- and triesters of glycerol and of PEG 400 with medium-chain fatty acids (C8-C10) which is marketed, for example, by Gattefossé under the mark Labrasol®; Labrasol® has an HLB value (hydrophil-lipophil-balance, Griffin, W. C.: Classification of surface active agents by HLB, J. Soc. Cosmet. 1, 1949) of 14 and has the following composition by weight:
• ib) Formulation comprising NanoSolve® 5401 (Lipoid GmbH, Germany) and the selected compounds of formula I • ic) Formulation comprising TPGS/PG in a weight ratio of 25% by weight of TPGS to 75% by weight of PG and the selected compounds of formula I. • PG: propylene glycol • TPGS: Vitamin E TPGS NF (d-α-tocopheryl polyethylene glycol 1000 succinate) which is marketed, for example, by Eastman Chemical Co • ii) Formulation comprising a micelles forming agent: • iia) Aqueous formulation comprising 30% by weight of Cremophor® RH 40 (relating to the weight of the aqueous phase) in water and the selected compounds of formula I • Cremophor® RH 40: • Generic names: • Polyoxyl 40 Hydrogenated Castor Oil (USP/NF). • Macrogol-Glycerolhydroxystearat (DAB). • Polyoxyethylenglyceroltrihydroxystearat (DAC). • Cremophor RH 40 is a non-ionic solubilizer and emulsifying agent obtained by reacting 45 moles of ethylene oxide with 1 mole of hydrogenated castor oil. The main constituent of Cremophor RH 40 is glycerol polyethylene glycol oxystearate, which, together with fatty acid glycerol polyglycol esters, forms the hydrophobic part of the product. The hydrophilic part consists of polyethylene glycols and glycerol ethoxylate. Cremophor RH 40 is a white to yellowish thin paste at 20° C. The HLB value lies between 14 and 16. Cremophor RH 40 is marketed by BASF AG.
The solubility of selected compounds of formula I in these formulations is measured and compared to the solubility of the compounds in 0.1N HCl (pH 1.0), PBS buffer (pH 7.4), and two simulated gastric fluids (i.e., FaSSIF (pH 6.5) simulating fasting sate and FeSSIF (pH 5.0) simulating fed state) (see above for details).

[6] = pH 1, 0.1 N HCl, read-out: t1/2 at pH 1 (converted)
[7] = pH 7.4, PBS buffer, read-out: t1/2 at pH 7.4 (converted)
[8] = 0.1 N HCl, pH 1, simulated gastric fluid, ambient temperature, shaken 10 min, read-out: Solubility 0.1N HCl Ph 1.0
[9] = FaSSIF, pH 6.5, fassif, fasting state fluid, ambient temperature, read-out: Solubility FaSSIF Ph 6.5
[10] = FeSSIF, pH 5, fessif, fed state fluid, ambient temperature, read-out: Solubility FeSSIF Ph 5.0
[11] = PBS buffer, pH 7.4, aqueous buffer, ambient temperature, read-out: Solubility PBS Ph 7.4

| Compound | half-life [1, 6] [h] | half-life [1, 7] [h] | solubility at 10 min [2, 8] [µg/mL] | solubility at 10 min [2, 9] [µg/mL] | solubility at 10 min [2, 10] [µg/mL] | solubility at 10 min [2, 11] [µg/mL] | chromatographic logD [3] | Papp A→B at 60 min [4] [×10⁻⁶ cm/s] | half-life at 5 μg/mL (Plasma stability ex vivo) [h] | solubility at 10 min ([2]; 0.1 N HCl, pH 1, simulated gastric fluid, Table 11, maximum solubility, read-out: Solubility 0.1N HCl pH 1.0) [µg/mL] | solubility at 10 min ([2]; FaSSIF, pH 6.5, fassif, Table 11, read-out: Solubility FaSSIF pH 6.5) [µg/mL] | solubility at 10 min ([2]; FeSSIF, pH 5, fessif, Table 11, read-out: Solubility FeSSIF pH 5.0) [µg/mL] | solubility at 10 min ([2]; PBS buffer, pH 7.4, aqueous buffer, Table 11, read-out: Solubility PBS pH 7.4) [µg/mL] | solubility ([5]; Labrasol, oil or lipid, read-out: Solubility Labrasol ®) [µg/mL] | solubility ([5]; organic solvent or mixture, 25% by weight TPGS, 75% by weight PG, read-out: Solubility TPGS/PG) [µg/mL] |
| --- | --- | --- | --- | --- | --- | --- | --- | --- | --- | --- | --- | --- | --- | --- | --- |
| CCN(CC)C(=O)/C(C#N)=C/c1cc(OC(=O)OCC(C)C)c(O)c([N+](=O)[O-])c1 [Compound 1, Carbonic acid 5-((E)-2-cyano-2-diethylcarbamoyl-vinyl)-2-hydroxy-3-nitro-phenyl ester isobutyl ester] | 6.8 | 11.6 | 20 (≈ 49.3 µM) | 530 (≈ 1310 µM) | 200 (≈ 493 µM) | 530 (≈ 1310 µM) | 1.4 | 24 | 0.128 |  |  |  |  |  |  |
| CCN(CC)C(=O)/C(C#N)=C/c1cc(OC(=O)OC(C)C)c(O)c([N+](=O)[O-])c1 [Compound 7, Carbonic acid 5-((E)-2-cyano-2-diethylcarbamoyl-vinyl)-2-hydroxy-3-nitro-phenyl ester isopropyl ester] | 2.7 | 23.1 | 3 (≈ 7.67 µM) | 750 (≈ 1920 µM) | 90 (≈ 230 µM) | 950 (≈ 2430 µM) | 1 | 31 | 0.223 |  |  |  |  |  |  |
| CCC(CC)OC(=O)Oc1cc(/C=C(\C#N)C(=O)N(CC)CC)cc([N+](=O)[O-])c1O [Compound 10, Carbonic acid 5-((E)-2-cyano-2-diethylcarbamoyl-vinyl)-2-hydroxy-3-nito-phenyl ester 1-ethyl-propyl ester] | 38.5 | 38.5 | 30 (≈ 71.5 µM) | 840 (≈ 2000 µM) | 190 (≈ 453 µM) | 1330 (≈ 3170 µM) | 1.8 | 22.4 |  | 30 (≈ 71.5 µM) | 840 (≈ 2000 µM) | 1330 (≈ 3170 µM) | 190 (≈ 453 µM) | 22000 (≈ 52500 µM) | 3900 (≈ 9300 µM) |
| CCCOC(=O)Oc1cc(/C=C(\C#N)C(=O)N(CC)CC)cc([N+](=O)[O-])c1O [Compound 41, Carbonic acid 5-((E)-2-cyano-2-diethylcarbamoyl-vinyl)-2-hydroxy-3-nitro-phenyl ester propyl ester] | 23.1 | 7.2 | 10 (≈ 25.6 µM) | 290 (≈ 741 µM) | 200 (≈ 511 µM) | 470 (≈ 1200 µM) | 1.2 | 18 | 0.112 |  |  |  |  |  |  |

Continued, values first:

| half-life [1, 6] [h] | half-life [1, 7] [h] | solubility at 10 min [2, 8] [µg/mL] | solubility at 10 min [2, 9] [µg/mL] | solubility at 10 min [2, 10] [µg/mL] | solubility at 10 min [2, 11] [µg/mL] | chromatographic logD [3] | Papp A→B at 60 min [4] [×10⁻⁶ cm/s] | half-life at 5 μg/mL (Plasma stability ex vivo) [h] | solubility at 10 min ([2]; 0.1 N HCl, pH 1, simulated gastric fluid, Table 11, maximum solubility, read-out: Solubility 0.1N HCl pH 1.0) [µg/mL] | solubility at 10 min ([2]; FaSSIF, pH 6.5, fassif, Table 11, read-out: Solubility FaSSIF pH 6.5) [µg/mL] | solubility at 10 min ([2]; FeSSIF, pH 5, fessif, Table 11, read-out: Solubility FeSSIF pH 5.0) [µg/mL] | solubility at 10 min ([2]; PBS buffer, pH 7.4, aqueous buffer, Table 11, read-out: Solubility PBS pH 7.4) [µg/mL] | solubility ([5]; Labrasol, oil or lipid, read-out: Solubility Labrasol ®) [µg/mL] | solubility ([5]; organic solvent or mixture, 25% by weight TPGS, 75% by weight PG, read-out: Solubility TPGS/PG) [µg/mL] | Compound |
| --- | --- | --- | --- | --- | --- | --- | --- | --- | --- | --- | --- | --- | --- | --- | --- |
| < 1 | 19.3 | < 10 | 1200 (≈ 2780 µM) | 140 (≈ 324 µM) | 810 (≈ 1880 µM) | 1.8 | 45 | 0.64 |  |  |  |  |  |  | CCN(CC)C(=O)/C(C#N)=C/c1cc(OC(=O)OC2CCCCC2)c(O)c([N+](=O)[O-])c1 [Compound 51, Carbonic acid 5-((E)-2-cyano-2-diethylcarbamoyl-vinyl)-2-hydroxy-3-nitro-phenyl ester cyclohexyl ester] |
| 12.8 | 4 |  | 240 (≈ 522 µM) | 40 (≈ 87.1 µM) | 490 (≈ 1070 µM) | 1.7 | 36 | 0.47 |  |  |  |  |  |  | CCN(CC)C(=O)/C(C#N)=C/c1cc(OC(=O)OCCc2cccs2)c(O)c([N+](=O)[O-])c1 [Compound 61, Carbonic acid 5-((E)-2-cyano-2-diethylcarbamoyl-vinyl)-2-hydroxy-3-nitro-phenyl ester 2-thiophen-2-yl-ethyl ester] |
| 28.9 | 8.3 | 70 (≈ 186 µM) | 570 (≈ 1510 µM) | 1100 (≈ 2920 µM) | 800 (≈ 2120 µM) | 0.8 | 7.7 | 0.0133 |  |  |  |  |  |  | CCOC(=O)Oc1cc(/C=C(\C#N)C(=O)N(CC)CC)cc([N+](=O)[O-])c1O [Compound 71, Carbonic acid 5-((E)-2-cyano-2-diethylcarbamoyl-vinyl)-2-hydroxy-3-nitro-phenyl ester ethyl ester] |
